Key:
[1] = Bioavailability of peptides after vaginal administration to sheep, relative to intravenous injection; settings: in vivo
Protocol: (§1) First, a peptide that undergoes receptor-mediated transport across the vaginal epithelium was identified by studying the permeation of peptides of varying molecular weight in a sheep model. Peptides were delivered vaginally to sheep in 5 ml of aqueous or methocel solutions with typical peptide concentrations of 10-40 μg/ml. A group of 18 intact ewes were utilized for these experiments. For each study, sheep were randomly assigned to a treatment group. In GnRH studies where each animal received all possible treatment combinations, each animal was assigned to an initial treatment group at random and subsequently randomly to each of the remaining treatment groups. A minimum of 5 days (typically 10 or more days) was allowed between experiments on a given animal, to provide sufficient time for complete recovery of pituitary responsiveness to the highest doses of the GnRH agonist used A 16G 150 mm jugular catheter (Abbocath-T, Abbott Laboratories, Chicago, Ill.) was inserted and blood samples collected at 0, 30, 60, 90, 120, 180, 240, 360, 480 and 1440 min. after treatment. Luteinizing hormone (LH) levels were determined.
(§2) LHRH analog was placed in methyl cellulose solutions (“methocels”) of varying apparent viscosity. […] First, 200 μg of leuprolide acetate in 5 ml of aqueous solutions with melhocel weight concentrations varying between 0% and 3.0% were vaginally administered.
The enhanced bioavailability of LHRH also coincides with a longer-term release into the systemic circulation at the optimal methocel concentrations. […] To test this hypothesis, the efficacy of a second, physically cross-linked hydrogel that was believed would not enhance endocytosis, but whose apparent viscosity (in the range of hydrogel concentrations 0.0-5.5%) was similar to that of the methocels (in the range 0.0-3.0%) was examined.

in vivo = type: in vivo, sheep; settings: female, sheep, in vivo, 40 ug, bioavailability
Protocol: (§3) FIG. 3 is a graph showing the percent of responding animals to LHRH analog vaginal delivery as a function of (simulated) stage of the estrous cycle. Stage of estrous cycle was simulated by delivering estradiol for two weeks to ovariectomized ewes (anestrus phase), followed by two weeks of delivery of estradiol and progesterone (mid-luteal phase), followed by a period of 48 h after progesterone withdrawal (follicular phase). In each simulated phase, 10, 40, or […] of LHRH analog were delivered vaginally in 5 ml of aqueous or methocel solution to groups of six ewes. Responding animals were defined as those treated animals with LH serum values exceeding 3 ng/ml for two or more sampling points, with sampling times of 0, 30, 60, […], 120, 180, 240, 360, and 480 min.
(§4) FIG. 4 is a graph showing serum LH response to vaginal administration of LHRH analog. LHRH analog-was administered vaginally in ovariectomized ewes during the simulated mid-luteal phase in 5 ml of aqueous or methocel (1.75% methyl cellulose) solution (40 μg dose). Standard errors are based on n=6.
(§5) It was therefore hypothesized that the responsiveness of animals to LHRH analog vaginal delivery varied with steroid-dependent hormone receptor expression (estrous cycle). To test this hypothesis, a group of ewes was ovariectomized and administered estradiol and progesterone to mimic the animals' estrous cycle. Ewes were pre-medicated with atropine (0.02 mg/lb) and Telazol (R) (2 mg/lb) intramuscularly. After induction of recumbency, thipental (5% in water) was administered intravenously to induce sufficient anesthesia to permit endotracheal intubation. Anesthesia was maintained using halothane in oxygen at 1-2 liters per minute. Ovaries were removed through a mid-line incision.
(§6) Within 24 h of surgery, a 1.5 cm silicone implant of estradiol (Compudose 200, Elanco, Ind.) was inserted into the left ear to provide a basal level of estradiol. The anestrus state was simulated after two weeks of estradiol delivery following surgery. Experiments were performed in the simulated anestrus state (i.e. two weeks after surgery) as described above. Immediately following the last blood sample, a progesterone-releasing intravaginal device (CIDR-G, Carter Hold Harvey Plastic Products, Hamilton, New Zealand) was inserted.
(§7) In a parallel study, an alternative progesterone-releasing device (Snychro-Mate-B, Sanofi Animal Health, Overland Park, Kans.) was placed in the left ear. The mid-luteal phase was simulated after permitting a 10 day intravaginal or ear progesterone treatment. Experiments were performed in the simulated mid-luteal phase as described above.
(§8) The progesterone-releasing (vaginal or ear) implant was removed and the follicular phase was simulated by allowing a time lapse of 48 h. Experiments were performed in the follicular phase as described above.
(§9) Next, 200 μg of leuprolide acetate in 5 ml of aqueous solutions was vaginally administered during simulated anestrus (estradiol only), mid-luteal (estradiol and progesterone), and follicular (48 h after progesterone withdrawal) phases, as described above. […] In contrast, 100% of animals responded when treated with progesterone and estradiol (FIG. 3).

luteinizing hormone (LH) [2] = test: in vivo; type: in vivo, sheep; settings: for animals responded: vaginal 200 μg; for LH response: vaginal, progesterone and estradiol treatment
Protocol: as §3, §4, §5, §6, §7, §8, §9

luteinizing hormone (LH) [3] = test: Serum LH response to iv injection and vaginal administration of LHRH analog in intact ewes; type: in vivo, sheep
Protocol: FIGS. 1a and 1b are graphs showing serum responses to iv injection and vacinal administration of vasopressin and leuprolide acetate. […] Vasopressin was injected intravenously ([…]) through a jugular catheter. The peptide was delivered vaginally in 5 ml of aqueous solution (200 g does). Standard errors are based on n=6. […] LHRH analog was injected intravenously ([…]) into through a jugular catheter. The peptide was delivered vaginally in 5 ml of aqueous solution (200 g dose). Standard errors are based on n=6.
FIG. 2 is a graph showing bioavailability of LHRH analog following vaginal administration as a function of methyl cellulose (“methocel”) concentration. Bioavailability is determined relative to intravenous injection (FIG. 1b) and is based on LH response. The administered dose of LHRH analog was 200 g in 5 ml of methocel solution. Results are based on animals that responded to vaginal treatment, with standard error computed on the basis of n≧4 In all cases, less than 50% of treated animals responded with LH levels greater than 3 ng/ml for more than one sampling point, with sampling times of 0, 30, 60, 90, 120, 180, 240, 360, and 480 min.
as §1, §2

bioavailability ([1]; female, sheep): 2.6 ± 0.9% | bioavailability (in vivo): 6% | bioavailability (luteinizing hormone (LH) [2]; female, sheep, in vivo, 40 ug): 10%
Compound: CCNC(=O)[C@@H]1CCCN1C(=O)[C@H](CCCNC(=N)N)NC(=O)[C@H](CC(C)C)NC(=O)[C@@H](CC(C)C)NC(=O)[C@H](Cc1ccc(O)cc1)NC(=O)[C@H](CO)NC(=O)[C@H](Cc1c[nH]c2ccccc12)NC(=O)[C@H](Cc1c[nH]cn1)NC(=O)[C@@H]1CCC(=O)N1 [leuprolide acetate]
duration of delivery as a function of control gel concentration [1]: diminished with increasing control gel concentration | bioavailability as a function of control hydrogel concentration ([1]; sheep): diminished with increasing concentration of the hydrogel | bioavailability as a function of methocel concentration ([1]; sheep, 200 ug): increase as methocel concentration increased to 1.75%, then to fall at higher methocel concentration | animals responded (luteinizing hormone (LH) [2]; treated with progesterone and estradiol (FIG. 3)): 100% | animals responded (luteinizing hormone (LH) [2]; with or without 1.75% methocel, estrogen replacement without progesterone): less than 50% | LH response (luteinizing hormone (LH) [2]; highest dose, with and without methocel): saturated | LH response (luteinizing hormone (LH) [2]; lowest dose (10 μg)): undetectable | luteinizing hormone (LH) response (luteinizing hormone (LH) [3]; intravenous injection (FIG. 1b)): significant | luteinizing hormone (LH) response (luteinizing hormone (LH) [3]; vaginal administration, aqueous solution (FIG. 1b)): significant | animals showing little or no response (luteinizing hormone (LH) [3]; vaginal administration, intact ewes, bimodal distribution): approximately 30% | treated animals that responded with LH levels greater than 3 ng/ml for more than one sampling point (luteinizing hormone (LH) [3]; vaginal, 5 ml methocel solution, intact ewes, all methocel concentrations (FIG. 2)): less than 50%

— USRE42072E1, “Compositions and methods for enhancing receptor-mediated cellular internalization” (The Penn State Research Foundation, priority 1996, dated 2011)
